Laboratory results from US11814445B2, “Cyclic polypeptides for PCSK9 inhibition” (Ra Pharmaceuticals, Inc., priority 2018, dated 2023).
Numbered stars: 1 amine (or outer) side, 2 acyl side, 3 side chain; on linkers, the order of the positions; unused ones are H or OH. Bridge positions count the residues as written; N and C are the ends. Square brackets hold non-standard residues; d marks the D form. Peptide text beside a SMILES is read from it. ξ: configuration not given here. X2 = NC(=O)[C@H](CSCc1cccc(C[*:1])c1)CC(=O)[C@@H]1CCCN1[*:2]; Phe(3,4,5-F3) = N[C@@H](Cc1cc(F)c(F)c(F)c1)C(=O)O; X6 = O=C([C@H](Cc1cccc(OCC=[*:3])c1)N[*:1])[*:2]; Phe(4-COOH) = N[C@@H](Cc1ccc(C(=O)O)cc1)C(=O)O; Trp(5-F) = N[C@@H](Cc1c[nH]c2ccc(F)cc12)C(=O)O; X9 = O=C(CCCCCSCc1ccc(CSCCN[*:1])cc1)[*:2]; Bip = N[C@@H](Cc1ccc(-c2ccccc2)cc1)C(=O)O; Phe(3-CN) = N#Cc1cccc(C[C@H](N)C(=O)O)c1; X1 = O=C(CCSCc1cccc(CSCCN[*:1])c1)[*:2]; 1Nal = N[C@@H](Cc1cccc2ccccc12)C(=O)O; mXylylene = c1cc(C[*:1])cc(C[*:2])c1; NMeY = CN[C@@H](Cc1ccc(O)cc1)C(=O)O; X5 = O=C(CN(CCCCC=[*:3])[*:1])[*:2]; X3 = O=C(CCSC/C=C/CSCCN[*:1])[*:2]; X4 = O=C(CN(CCCC=[*:3])[*:1])[*:2]; hhPhe = N[C@@H](CCCc1ccccc1)C(=O)O; X7 = O=C(CN(CC=[*:3])[*:1])[*:2]; aThr = C[C@H](O)[C@H](N)C(=O)O; αMeP = C[C@@]1(C(=O)O)CCCN1; hSer = N[C@@H](CCO)C(=O)O; Aze = O=C(O)[C@@H]1CCN1; Ahx = NCCCCCC(=O)O; ξP = O=C(O)C1CCCN1; Mpa = O=C(O)CCS

Legend:
PCSK9 = biological target: T1, PCSK9 (Homo sapiens, UniProt Q8NBP7); assay: PCSK9 Alexa FRET Standard assay (displacement of AlexaFluor647 tagged cyclic peptide Reagent A); format: binding; details: 0.5 nM PCSK9, 20 nM AF cyclic peptide Reagent A
T1 construct: biotin (biotinylated)
Description: A solution containing 1 nM biotinylated PCSK9+2.5 nM Lance Streptavidin Europium (Strep-Eu) was made in 50 mM HEPES pH 7.4, 0.15 M NaCl, 5 mM CaCl2), 0.01% BSA, and 0.01% Surfactant P20. A separate solution containing 40 nM of the AlexaFluor tagged cyclic peptide was made in the same buffer system. An Echo was used to transfer 0.750 ul of compound to an assay plate followed by the addition of 15 ul of PCSK9+Stept-Eu and 15 ul of AF peptide. The final assay volume was 30.750 ul containing 0.5 nM PCSK9, 1.25 nM Strep-Eu, and 20 nM AF cyclic peptide. The reaction was incubated at room temperature for at least two hours prior to fluorescence measurements using an Envision Multilabel Reader. IC50 values were determined by fitting data to a sigmoidal dose-response curve using nonlinear regression. Ki was then calculated from the IC50 and the KD of AF cyclic peptide. Counts (B-counts) of the europium-labeled PCSK9 were followed to observe if compounds were […]. A fall off of the B-counts likely indicated a false positive of inhibition. Data from this procedure was reported as “A=‘numerical value’ (nanomolar)”

[1] = biological target: human PCSK9 / human LDLR EGFa domain (Homo sapiens, UniProt Q8NBP7); assay: TR-FRET assay of inhibition of the PCSK9-LDLR protein-protein interaction; format: binding; details: 20 nM human PCSK9, 20 nM human LDLR EGFa domain, 2 hours room temperature
Description: A time-resolved fluorescence resonance energy (TR-FRET) assay was used to measure inhibition of the PCSK9-LDLR protein-protein interaction. Briefly, 20 nM avitag-biotinylated human PCSK9 was incubated with 20 nM his-tagged human LDLR EGFa domain in the presence of 5 nM LANCE Ulight Streptavidin (Perkin Elmer) and 5 nM europium-Anti-6×His (Perkin Elmer) for 2 hours covered at room temperature in buffer containing 50 mM HEPES, 150 mM NaCl, 5 mM CaCl2), 0.01% BSA and 0.01% Surfactant P20. Compounds were tested in dose-response and concentrations giving half-maximal inhibition calculated using a 4-parameter fit equation.

T1 sequence (Q8NBP7 153-692): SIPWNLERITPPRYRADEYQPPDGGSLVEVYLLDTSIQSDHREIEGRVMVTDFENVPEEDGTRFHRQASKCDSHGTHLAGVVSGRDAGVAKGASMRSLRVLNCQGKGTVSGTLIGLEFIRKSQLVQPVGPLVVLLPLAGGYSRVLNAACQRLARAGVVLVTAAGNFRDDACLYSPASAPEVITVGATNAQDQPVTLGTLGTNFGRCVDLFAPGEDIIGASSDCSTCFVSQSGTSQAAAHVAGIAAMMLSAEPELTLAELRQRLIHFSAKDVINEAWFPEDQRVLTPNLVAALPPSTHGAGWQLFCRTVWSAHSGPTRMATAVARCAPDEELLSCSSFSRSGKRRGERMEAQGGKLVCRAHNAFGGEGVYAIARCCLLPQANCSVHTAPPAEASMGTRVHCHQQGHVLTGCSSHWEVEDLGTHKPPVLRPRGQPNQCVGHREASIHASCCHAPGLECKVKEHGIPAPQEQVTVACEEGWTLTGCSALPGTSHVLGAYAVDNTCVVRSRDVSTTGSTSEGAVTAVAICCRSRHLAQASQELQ
human PCSK9 / human LDLR EGFa domain, sequence (Q8NBP7 153-692): as above

SMILES | IC50 (PCSK9) [nM] | IC50 [1] [nM]
C[C@H](O)[C@@H]1NC(=O)CNC(=O)[C@H](CCCCN)NC(=O)CCSCc2cccc(c2)CSC[C@@H](C(N)=O)NC(=O)[C@]2(C)CCCN2C(=O)[C@H](Cc2ccc(O)cc2)NC(=O)[C@H](Cc2cnc[nH]2)NC(=O)[C@H](CC(=O)O)NC(=O)[C@H](Cc2c[nH]c3ccc(F)cc23)NC1=O [Compound 114] ([Mpa]KG[aThr][Trp(5-F)]DHY[αMeP]C-NH2; linker 1-10 via mXylylene) | 100 to 1000 | 100 to 1000
C[C@@H]1NC(=O)[C@@H]2CCCN2C(=O)[C@H](Cc2cc(F)c(F)c(F)c2)NC(=O)[C@H](Cc2c[nH]c3ccc(F)cc23)NC(=O)CNC(=O)[C@H](CCCCN)NC(=O)CCSCc2cccc(c2)CSC[C@@H](C(N)=O)NC(=O)[C@@H]2CCCN2C(=O)[C@H](Cc2ccc(O)cc2)NC1=O [Compound 014] ([Mpa]KG[Trp(5-F)][Phe(3,4,5-F3)]PAYPC-NH2; linker 1-10 via mXylylene) | 1 to 100 | 1 to 100
NCCCC[C@@H]1NC(=O)CCSCc2cccc(c2)CSC[C@@H](C(N)=O)NC(=O)[C@@H]2CCCN2C(=O)[C@H](Cc2ccc(O)cc2)NC(=O)[C@H](Cc2cnc[nH]2)NC(=O)[C@H](CCO)NC(=O)[C@H](Cc2c[nH]c3ccc(F)cc23)NC(=O)[C@H](Cc2c[nH]c3ccc(F)cc23)NC(=O)CNC1=O [Compound 117] ([Mpa]KG[Trp(5-F)][Trp(5-F)][hSer]HYPC-NH2; linker 1-10 via mXylylene) | 1 to 100 | 100 to 1000
C[C@@H]1NC(=O)[C@@H]2CCCN2C(=O)[C@H](Cc2c[nH]c3ccc(F)cc23)NC(=O)[C@H](Cc2c[nH]c3ccc(F)cc23)NC(=O)[C@@H](C)NC(=O)[C@@H]2CCCN2C(=O)CCSCc2cccc(c2)CSCCNC(=O)[C@@H]2CCCN2C(=O)[C@H](Cc2ccc(O)cc2)NC1=O [Compound 050] (cyclo(AYP[X1]P[dA][Trp(5-F)][Trp(5-F)]P)) | 1000 to 12100 | 1 to 100
C[C@@H]1NC(=O)[C@@H]2CCCN2C(=O)[C@H](CCCc2ccccc2)NC(=O)[C@H](Cc2c[nH]c3ccc(F)cc23)NC(=O)CNC(=O)[C@H](CCCCN)NC(=O)CCSCc2cccc(c2)CSC[C@@H](C(N)=O)NC(=O)[C@@H]2CCCN2C(=O)[C@H](Cc2ccc(O)cc2)NC1=O [Compound 013] ([Mpa]KG[Trp(5-F)][hhPhe]PAYPC-NH2; linker 1-10 via mXylylene) | 1 to 100 | 1 to 100
COc1ccc(C[C@@H]2NC(=O)[C@H](C)NC(=O)CN3C/C=C\COc4cccc(c4)C[C@H](NC(=O)CNC(=O)CCCCCNC(=O)c4ccc(cc4)C[C@@H](C(N)=O)NC(=O)[C@]4(C)CCCN4C2=O)C(=O)N[C@@H](Cc2c[nH]c4ccc(F)cc24)C3=O)cc1 [Compound 121] ([Ahx]G[X6][Trp(5-F)][X7]AY(Me)[αMeP][Phe(4-COOH)]-NH2; staple (Z) 3-5; lactam N-9) | 1 to 100 | 100 to 1000
COc1ccc(C[C@H]2C(=O)N3CCC[C@H]3C(=O)NCCSCc3cccc(c3)CSCCC(=O)N3CCC[C@H]3C(=O)N[C@H](C)C(=O)N[C@@H](Cc3c[nH]c4ccc(F)cc34)C(=O)N[C@@H](Cc3c[nH]c4ccc(F)cc34)C(=O)N3CCC[C@H]3C(=O)N[C@@H](C)C(=O)N2C)cc1 [Compound 053] (cyclo(A[NMeY](Me)P[X1]P[dA][Trp(5-F)][Trp(5-F)]P)) | 1000 to 12100 | 100 to 1000
COc1ccc(C[C@@H]2NC(=O)[C@H](C)NC(=O)CN3CCCCCCCCCN(CC(=O)N[C@@H](Cc4c[nH]c5ccc(F)cc45)C3=O)C(=O)CNC(=O)CCCCCNC(=O)c3ccc(cc3)C[C@@H](C(N)=O)NC(=O)[C@]3(C)CCCN3C2=O)cc1 [Compound 123] | 1 to 100 | 100 to 1000
COc1ccc(C[C@@H]2NC(=O)[C@H](C)NC(=O)[C@@H]3CCCN3C(=O)[C@H](NC(=O)[C@H](Cc3c[nH]c4ccc(F)cc34)NC(C)=O)Cc3cn(c4ccc(F)cc34)Cc3cn(nn3)-c3cccc(c3)CSCCNC(=O)[C@]3(C)CCCN3C2=O)cc1 [Compound 101] | 1 to 100 | 1 to 100
COc1ccc(C[C@@H]2NC(=O)[C@H]([C@@H](C)O)NC(=O)CN3CCCCCOc4cccc(c4)C[C@@H](NC(=O)[C@@H](C)NC(=O)[C@H](C)NC(=O)CCSCc4cccc(c4)CSCCNC(=O)[C@]4(C)CCCN4C2=O)C(=O)N[C@@H](Cc2c[nH]c4ccc(F)cc24)C3=O)cc1 [Compound 125] | 100 to 1000 | 100 to 1000
COc1ccc(C[C@@H]2NC(=O)[C@H](C)NC(=O)[C@@H]3CCCN3C(=O)[C@H](NC(=O)[C@H](Cc3c[nH]c4ccc(F)cc34)NC(=O)[C@@H](C)NC(C)=O)Cc3cn(c4ccc(F)cc34)Cc3cn(nn3)-c3cccc(c3)CSCCNC(=O)[C@]3(C)CCCN3C2=O)cc1 [Compound 102] | 1 to 100 | 1 to 100
COc1ccc(C[C@@H]2NC(=O)[C@H](C)NC(=O)CN3CCCC/C=C\CCCN(CC(=O)N[C@@H](Cc4c[nH]c5ccc(F)cc45)C3=O)C(=O)CNC(=O)CCCCCNC(=O)c3ccc(cc3)C[C@@H](C(N)=O)NC(=O)[C@]3(C)CCCN3C2=O)cc1 [Compound 122] ([Ahx]G[X4][Trp(5-F)][X5]AY(Me)[αMeP][Phe(4-COOH)]-NH2; staple (Z) 3-5; lactam N-9) | 100 to 1000 | 1000 to 12100
C[C@@H]1NC(=O)[C@@H]2CCN2C(=O)[C@H](Cc2c[nH]c3ccc(F)cc23)NC(=O)[C@H](Cc2c[nH]c3ccc(F)cc23)NC(=O)[C@@H](C)NC(=O)[C@H](CCCCN)NC(=O)CCSCc2cccc(c2)CSC[C@@H](C(N)=O)CC(=O)[C@@H]2CCCN2C(=O)[C@H](Cc2ccc(O)cc2)NC1=O [Compound 034] ([Mpa]K[dA][Trp(5-F)][Trp(5-F)][Aze]AY; linker 1-C via X2) | 1 to 100 | 100 to 1000
NCCCC[C@@H]1NC(=O)CCSCc2cccc(c2)CSCCNC(=O)C2CCCN2C(=O)[C@H](Cc2ccc(O)cc2)NC(=O)CNC(=O)[C@H]2CCCN2C(=O)[C@H](Cc2c[nH]c3ccc(F)cc23)NC(=O)[C@H](Cc2c[nH]c3ccc(F)cc23)NC(=O)CNC1=O (some centres unmarked) [Compound 041] (cyclo(G[Trp(5-F)][Trp(5-F)][dP]GY[ξP][X1]K)) | 1 to 100 | 1 to 100
C[C@@H]1NC(=O)[C@@H]2CCCN2C(=O)[C@H](Cc2ccc(-c3ccccc3)cc2)NC(=O)[C@H](Cc2c[nH]c3ccc(F)cc23)NC(=O)CNC(=O)[C@H](CCCCN)NC(=O)CCSCc2cccc(c2)CSC[C@@H](C(N)=O)NC(=O)[C@@H]2CCCN2C(=O)[C@H](Cc2ccc(O)cc2)NC1=O [Compound 017] ([Mpa]KG[Trp(5-F)][Bip]PAYPC-NH2; linker 1-10 via mXylylene) | 1000 to 12100 | 100 to 1000
C[C@@H]1NC(=O)[C@@H]2CCCN2C(=O)[C@H](Cc2cccc(C#N)c2)NC(=O)[C@H](Cc2c[nH]c3ccc(F)cc23)NC(=O)CNC(=O)[C@H](CCCCN)NC(=O)CCSCc2cccc(c2)CSC[C@@H](C(N)=O)NC(=O)[C@@H]2CCCN2C(=O)[C@H](Cc2ccc(O)cc2)NC1=O [Compound 015] ([Mpa]KG[Trp(5-F)][Phe(3-CN)]PAYPC-NH2; linker 1-10 via mXylylene) | 1 to 100 | 1 to 100
COc1ccc(C[C@@H]2NC(=O)[C@H](C)NC(=O)[C@@H]3CCCN3C(=O)[C@@H]3Cc4cn(c5ccc(F)cc45)Cc4cn(nn4)-c4c(cccc4CSCCC(=O)N[C@H](C)C(=O)NCC(=O)N[C@@H](Cc4c[nH]c5ccc(F)cc45)C(=O)N3)CSCCNC(=O)[C@]3(C)CCCN3C2=O)cc1 [Compound 128] | 1 to 100 | 100 to 1000
C[C@@H]1NC(=O)[C@@H]2CCCN2C(=O)[C@H](Cc2cccc3ccccc23)NC(=O)[C@H](Cc2c[nH]c3ccc(F)cc23)NC(=O)CNC(=O)[C@H](CCCCN)NC(=O)CCSCc2cccc(c2)CSC[C@@H](C(N)=O)NC(=O)[C@@H]2CCCN2C(=O)[C@H](Cc2ccc(O)cc2)NC1=O [Compound 012] ([Mpa]KG[Trp(5-F)][1Nal]PAYPC-NH2; linker 1-10 via mXylylene) | 1 to 100 | 1 to 100
COc1ccc(C[C@@H]2NC(=O)[C@H](C)NC(=O)CN3CCCCOc4cccc(c4)C[C@H](NC(=O)CNC(=O)CCCCCNC(=O)c4ccc(cc4)C[C@@H](C(N)=O)NC(=O)[C@]4(C)CCCN4C2=O)C(=O)N[C@@H](Cc2c[nH]c4ccc(F)cc24)C3=O)cc1 [Compound 124] | 1 to 100 | 100 to 1000
C[C@@H]1NC(=O)[C@@H]2CCCN2C(=O)[C@H](Cc2c[nH]c3ccc(F)cc23)NC(=O)[C@H](Cc2c[nH]c3ccc(F)cc23)NC(=O)[C@@H](C)NC(=O)[C@H](CCCCN)NC(=O)CCSC/C=C/CSCCNC(=O)[C@]2(C)CCCN2C(=O)[C@H](Cc2ccc(O)cc2)NC1=O [Compound 045] (cyclo(AY[αMeP][X3]K[dA][Trp(5-F)][Trp(5-F)]P)) | 1 to 100 | 1 to 100
C[C@@H]1NC(=O)[C@@H]2CCCN2C(=O)[C@H](Cc2c[nH]c3ccc(F)cc23)NC(=O)[C@H](Cc2c[nH]c3ccc(F)cc23)NC(=O)CNC(=O)CCCCCSCc2ccc(cc2)CSCCNC(=O)C2CCCN2C(=O)[C@H](Cc2ccc(O)cc2)NC1=O (some centres unmarked) [Compound 099] (cyclo(AY[ξP][X9]G[Trp(5-F)][Trp(5-F)]P)) | – | 1000 to 12100
